Measured values published in patent publication US7291469B2, “Mutant met and uses therefor” (The Regents of the University of California, priority 2004, dated 2007).

What was measured:
Met gene expression = Met gene expression by semi-quantitative RT-PCR under hypoxia mimic; assay type: cell-based; settings: two canine OSA cell lines
Description: To evaluate the effects of hypoxia on Met gene expression, we cultured two different canine OSA cell lines in the presence of cobalt chloride, an agent that mimics hypoxia. […] Given the substantial data indicating a role of Met in a variety of human cancers, it is likely that dysregulation of Met will play a similar role in canine cancers.

canine Met = experiment: Met phosphorylation in canine tumor cell lines after rhHGF stimulation; assay type: cell-based
Chain of canine Met (Q75ZY9 25-308 limits assumed): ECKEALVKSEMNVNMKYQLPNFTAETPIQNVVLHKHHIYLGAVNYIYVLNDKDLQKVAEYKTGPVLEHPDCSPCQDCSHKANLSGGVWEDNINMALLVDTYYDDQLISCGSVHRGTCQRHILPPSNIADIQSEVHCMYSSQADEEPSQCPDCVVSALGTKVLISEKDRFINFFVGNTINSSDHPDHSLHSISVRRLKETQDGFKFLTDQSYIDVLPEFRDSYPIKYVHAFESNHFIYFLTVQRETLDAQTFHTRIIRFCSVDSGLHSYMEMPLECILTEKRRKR
Chain of canine Met (Q75ZY9 309-516 limits assumed): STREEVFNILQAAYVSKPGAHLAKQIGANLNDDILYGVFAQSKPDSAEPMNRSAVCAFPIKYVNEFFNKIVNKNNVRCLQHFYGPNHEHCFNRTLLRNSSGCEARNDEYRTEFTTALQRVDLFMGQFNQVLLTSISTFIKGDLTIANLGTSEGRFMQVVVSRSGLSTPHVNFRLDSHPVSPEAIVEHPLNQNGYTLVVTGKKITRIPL
Procedure: It is possible that this mutation results in the basal phosphorylation of Met in this cell line.
To determine whether HGF stimulation of canine Met induces appropriate Met autophosphorylation and downstream signal transduction, Met expressing tumor cell lines were treated with recombinant human HGF and the phosphorylation of Met on several specific tyrosines as well as phosphorylation of downstream signaling components were evaluated. […] It was then necessary to determine whether all critical tyrosine residues were phosphorylated after rhHGF exposure, as it was possible that the recombinant human protein was only inducing partial or incomplete signal transduction. […] Although this could be attributed to autocrine HGF and HGFA production, the D17 cell line also has the D544N mutation.

canine OSA cells = experiment: Scattering and migration of canine OSA cells under growth factor deprivation with HGF; assay type: cell-based; settings: medium without fetal bovine serum, HGF added
Description: To evaluate the ability of OSA cells to scatter and migrate, we cultured cells in medium containing fetal bovine serum or no fetal bovine serum (stressful condition), then stimulated with HGF. The OSA cells began to show evidence of morphology change (scattering) upon growth factor deprivation.

[1] = system: NIH-3T3 cells stably transfected with canine Met constructs; experiment: Gap migration assay in NIH-3T3 cells stably transfected with canine Met constructs; assay type: cell-based; settings: R988C, M1251T, D544N, G966S Met lines; 50 ng/ml; 24 hours
Procedure: Cells were allowed to grow to confluence in tissue culture, then defects were created manually to create a “gap” in the cells. The cells were then left in medium alone or treated with recombinant human HGF (rhHGF) at 50 ng/ml. Cells were also treated with a Met inhibitor in the absence or presence of rhHGF. Cultures were evaluated 24 hours later by staining the cells with crystal violet and digital imaging.

Gab-1, Erk1/2, and Akt = experiment: Phosphorylation of downstream signal transduction components Gab-1, Erk1/2 and Akt after rhHGF stimulation; assay type: cell-based, canine
Description: The activation of downstream signal transduction components Gab-1, Erk1/2, and Akt were then examined. […] It is possible that in these cases, other growth factor pathways contribute to this high level of basal phosphorylation.

Compound: [Cl][Co][Cl] [cobalt chloride]
- Met gene expression (Met gene expression): upregulation of Met gene expression

Compound: rhHGF: recombinant human hepatocyte growth factor, the ligand for Met
- phosphorylation of Met tyrosines 1003, 1230/34/35, 1349 and 1365 (canine Met; OSA8 canine OSA cell line): all phosphorylated appropriately
- concentration of maximal stimulation of Met phosphorylation (canine Met; canine OSA cell lines): 50 ng/mL
- phosphorylation of canine Met (canine Met; canine OSA cell lines): induced phosphorylation of canine Met in all cell lines tested in a dose dependent fashion
- morphology change (scattering) (canine OSA cells): further enhanced
- migration compared to NIH-3T3 expressing wild-type Met [1]: markedly increased
- Erk and Akt phosphorylation (Gab-1, Erk1/2, and Akt; Mel 3 and Mel 8 cell lines): inducible Erk and Akt phosphorylation
- Gab-1 phosphorylation (Gab-1, Erk1/2, and Akt; each of the canine cell lines tested): Gab-1 was phosphorylated
